SMILES strings stand for the structures.

For one data set, the system named is ERK and Akt activities. The experiment in a line: ERK and Akt activities in LK133A-A2 cells (EphA2 restored). It is filed as cell-based, mice. The method, then:
(§1) Cells were plated in 24-well dishes at a density of 100,000 cells/well and grown for 24 hours prior to stimulation with appropriate compounds and ephrins for the given amounts of time. Compounds were prepared in DMSO at 500 times the final concentrations and 0.2% DMSO was used as vehicle control. Following treatment, cells were lysed directly in SDS Gel Loading Buffer and immunoblotted as described previously. Immunoprecipitation and immunofluorescence staining was performed as described. For immunoprecipitation, 300,000 cells/well were plated in 6-well dishes and lysed in modified RIPA Buffer (20 mM Tris-HCl pH 7.4, 20 mM NaF, 150 mM NaCl, 10% glycerol, 0.1% SDS, 0.5% DCA, 2 mM EDTA, 1% Triton X-100) following treatment. Either 10 μg of ephrin-A1-Fc, or […] of EphA2 mouse monoclonal antibody (Clone D7, Millipore) were used, and mouse IgG was used as a negative control for EphA2 IP.
To address this question, we utilized an immortalized liver epithelial cell line, LK133A, isolated from a hepatoma induced by DEN in EphA2 knockout mice. Retroviral vector was used to restore EphA2 expression in these cells (LK133A-A2), and cells transduced with an empty vector were used as control (LK133AVec).

Data set [1] concerns the target T1, EphA2 (Homo sapiens, UniProt P29317). The experiment in a line: EphA2 internalization in MDA-MB-231 cells (immunofluorescence, Example 2). The settings on record: 60 min, Doxazosin 50 μM. The arrangement: expressed in transfected cells; host or cells: MDA-MB-231 (MDA-231-A2 / MDA-MB-231-A2), puromycin selected. The data set is classed as cell-based. On the procedure: This was performed using the MDA-MB-231 cell line. This cell line spreads well in culture, thereby facilitating immunofluorescence detection of cell surface and intracellular EphA2 (FIG. 28). […] MDA-MB-231 cells were plated in 24-well plates on 10 mm square coverslips coated with 10 μg/ml fibronectin and incubated 24-48 hrs before treatment with 50 μM Doxazosin and various doses of compound 27 (0.4, 2, 10, 50 μM) in 0.5% DMSO for 1 hr. As another positive control, cells were treated with 2 μg/ml ephrin-A1-Fc. Cells were then washed with PBS and fixed with 4% paraformaldehyde (Electron Microscopy Sciences, Hatfield, PA) on ice for 10 min, followed by washing and permeabilization with 0.4% NP-40 for 10 min on ice. […] Cells were then incubated in primary mouse EphA2 antibody (D7, 1:100) in 0.1% BSA/PBS for 1 hr at room temperature, washed in PBS and BSA/PBS, followed by incubation in secondary donkey anti-mouse Alexa Fluor 488 antibody (1:300) in BSA/PBS for 30 min at room temperature. Cells were washed in PBS and BSA/PBS, followed by mounting in DAPI Mounting Medium (Electron Microscopy Sciences). Images were taken with a Leica microscope.

For another data set, the system named is PC3-DAB2IP KD cells. Description: In vivo metastasis assay, orthotopic PC3-DAB2IP KD xenograft. The method, then:
PC-3 cells (from ATCC) engineered to express both GFP and DAB2IP shRNA were characterized previously. Cells were suspended in serum free medium and 2,000 cells injected directly into the prostate glands of 7 week old NCr athymic nu/nu mice. Three days after injection, mice were divided into two groups, one receiving vehicle alone (5% DMSO/10% Cremophor/PBS) and another 50 mg/kg doxazosin via intraperitoneal injection daily for 10 days. Mice were sacrificed 14 days later and intact primary tumors were imaged under a UV light box with a Digital camera. Lungs were dissected into separate lobes and GFP-expressing metastases were imaged using an inverted fluorescent microscope (Leica). Metastases were enumerated in the two largest lung lobes and placed into size categories based upon their diameters, measured in number of cells (1-10 cells). Total metastatic burden was calculated in each mouse using the following equation: [burden=Σ (# of foci×focus diameter)].
We took advantage of this newly established model system to test how doxazosin can affect metastasis of prostate cancer. To this end, PC3-DAB2IP KD cells were injected orthotopically into the prostate glands of nude mice. Three days later, recipient mice were subject to systemic treatment by daily i.p. injection of either vehicle control, or 50 mg/kg doxazosin for 10 days. Since these cells also expressed green fluorescent protein (GFP), freshly dissected primary tumors could be readily visualized in a GFP light box (FIG. 7A top panels), and distal metastases to lungs and lymph nodes could be observed and quantified under a fluorescent microscope (FIG. 7A lower panels).
Next, we determined whether doxazosin treatment might impact overall survival. Nude mice orthotopically implanted with the PC3-DAP2IP KD cells were treated for 10 days with either doxazosin, or vehicle control and monitored for survival.

The test system of data set [2] is MDA-MB-231 breast cancer cells. The experiment in a line: Haptotactic cell migration toward fibronectin, MDA-MB-231. It is filed as cell-based. The settings on record: MDA-MB-231, 4 hours. An excerpt:
One of the well-established functions of Eph receptors is the ligand-dependent repulsive guidance of cell migration. As a ligand-mimicking agonist for EphA2, doxazosin is expected to activate EphA2 on tumor cells and repulse migrating tumor cells in vitro. To test this possibility, we first investigated the effects of doxazosin on integrin-mediated haptotactic cell migration toward fibronectin in a modified Boyden chamber cell migration assay. […] The inhibitory effects were observed when doxazosin was presented either in the bottom chamber, or in both top and bottom chambers in the Transwell assay system. […] Therefore, doxazosin can recapitulate a key function attributed to its native ligands, i.e., negative regulation of cell migration.

A further data set deals with endogenous EphA2 (Homo sapiens, UniProt P29317). Description: EphA2 internalization in parental MDA-MB-231 cells (immunofluorescence, Example 1). The data set is classed as cell-based. The following applies: 50 μM, two hours. The arrangement: host or cells: MDA-MB-231 (parental). The method, then: as §1
endogenous EphA2, sequence (P29317 24-976): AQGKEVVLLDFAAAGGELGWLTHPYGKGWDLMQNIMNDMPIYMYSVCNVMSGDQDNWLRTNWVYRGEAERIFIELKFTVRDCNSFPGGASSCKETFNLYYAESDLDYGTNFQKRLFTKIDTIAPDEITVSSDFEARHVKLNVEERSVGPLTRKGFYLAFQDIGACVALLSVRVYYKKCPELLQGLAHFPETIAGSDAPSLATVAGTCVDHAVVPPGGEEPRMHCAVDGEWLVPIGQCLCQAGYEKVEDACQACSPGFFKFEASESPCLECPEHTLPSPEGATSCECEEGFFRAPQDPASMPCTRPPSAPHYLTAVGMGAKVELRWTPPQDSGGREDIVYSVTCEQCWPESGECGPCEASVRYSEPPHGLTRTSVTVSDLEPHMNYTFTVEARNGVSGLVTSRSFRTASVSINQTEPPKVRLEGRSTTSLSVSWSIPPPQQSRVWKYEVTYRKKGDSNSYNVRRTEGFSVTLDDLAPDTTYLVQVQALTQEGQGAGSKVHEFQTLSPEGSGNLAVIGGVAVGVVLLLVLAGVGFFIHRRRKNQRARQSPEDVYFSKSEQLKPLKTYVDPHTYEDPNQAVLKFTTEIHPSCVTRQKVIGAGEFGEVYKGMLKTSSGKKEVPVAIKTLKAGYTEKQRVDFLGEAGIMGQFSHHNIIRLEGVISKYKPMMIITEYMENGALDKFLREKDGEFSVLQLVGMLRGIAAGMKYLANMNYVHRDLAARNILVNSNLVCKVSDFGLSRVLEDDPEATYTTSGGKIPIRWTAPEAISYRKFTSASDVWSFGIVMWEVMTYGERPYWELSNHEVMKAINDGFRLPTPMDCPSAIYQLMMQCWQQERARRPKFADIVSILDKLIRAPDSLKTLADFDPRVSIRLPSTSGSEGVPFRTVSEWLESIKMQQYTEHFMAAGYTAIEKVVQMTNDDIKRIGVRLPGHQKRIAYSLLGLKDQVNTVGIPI
Similar to other receptor tyrosine kinases, activation of the EphA2 receptor by its ligand, ephrin-A1, results in receptor internalization and eventual degradation. […] This was first performed using the U373 glioma cell line engineered to overexpress EphA2.

The test system of data set [3] is DU145 and PC-3 cell xenografts. The following applies: previously shown, independent of α1-adrenoreceptor; cited from earlier work.
Data set [4] deals with T1, EphA2. Description: EphA2 activation in HEK 293-A2 cells (pEphA/B immunoblot). The data set is classed as cell-based. The arrangement: expressed in transfected cells. The method, then: as §1
To determine whether the EphA2 agonist activity of doxazosin is cell-context specific, we evaluated the effects of doxazosin on additional cell types. We first utilized HEK 293 cells overexpressing EphA2 (HEK 293-A2) that we described previously. […] Next we tested PC-3 cells that express high levels of endogenous EphA2 receptor. […] We next evaluated the time-course of activation in both MDA-231-A2 and HEK 293-A2 cells upon treatment with a single 50 μM dose of doxazosin.

The mark [5] stands for this setting: 50 mg/kg i.p. daily for 10 days, versus vehicle.

T1 sequence (P29317 24-976): as above

For `COc1cc2nc(N3CCN(C(=O)C4COc5ccccc5O4)CC3)nc(N)c2cc1OC` (stereo not shown) [Doxazosin, 2-[4-(2,3-Dihydro-1,4-benzodioxine-2-carbonyl)piperazin-1-yl]-6,7-dimethoxyquinazolin-4-amine], the “ERK and Akt inhibition after reintroduction of EphA2” value in the data set on ERK and Akt activities is “restored ERK and Akt inhibition”. In addition, the EphA2 internalization entry at EphA2 [1] is listed as “stimulated significant EphA2 internalization”. In addition, the side effects result in the data set with PC3-DAB2IP KD cells (50 mg/kg i.p. daily for 10 days) is given as “no notable side effects”. For the same compound, in the data set on PC3-DAB2IP KD cells (setting [5]), the body weight result was “no changes in body weight”, the “number of lung metastases” value is on record as “significant reduction in the number of lung metastases”, the primary tumor sizes entry is “difference was not statistically significant” and the “sizes of lung metastases” value is listed as “significantly smaller”. For the same compound, in the data set with PC3-DAB2IP KD cells (setting [5]), the total metastatic burden result is “even more significantly reduced” and the “tumor cell dissemination to local lymph nodes” value is reported as “reduced, but not to a significant extent”. The compound also gave an overall survival in the data set on PC3-DAB2IP KD cells (27 days after cell implantation, treated 10 days, vehicle 30%) of 70%. Also, the “haptotactic cell migration toward fibronectin” value in data set [2] is “dose-dependent inhibition of cell migration”. Further, on endogenous EphA2, the EphA2 internalization entry is reported as “caused significant internalization of the endogenous EphA2”. The subcutaneous xenograft growth result in data set [3] is “moderately decrease subcutaneous growth of DU145 and PC-3 cell xenografts”. Also, the “concentration at which EphA2 activation starts” value on EphA2 [4] (HEK 293-A2 cells, 30 minutes) amounted to 25 µM. Further, the “time at which EphA2 activation becomes evident” value at EphA2 [4] (HEK 293-A2 cells, single 50 μM dose) came to 10 min. Moreover, the EphA2 kinase activation result at EphA2 [4] (HEK 293 overexpressing EphA2, 60 minutes) was “activated both EphA2 and EphA4 kinases following a similar dose-response relationship”.

The values above are taken from patent publication US11944624B2, “Peptide and small molecule agonists of EphA and their uses” (CASE WESTERN RESERVE UNIVERSITY, priority 2017, dated 2024).
